Literature values as cited in patent US12616655B2, “Topical antibiotic containing pharmaceutical composition for bacterial infections and wound healing” (Vishagan Vanangamudi Sulur, priority 2019, dated 2026).
≈ marks a conversion by molar mass, not a printed value. Where two headings read alike, the source gives them in different places.

Tests used:
[1] = at 22° C.
[2] = through intact human skin
[3] = system: Staphylococcus aureus

C/C(=C\C(=O)OCCCCCCCCC(=O)O)C[C@@H]1OC[C@H](C[C@@H]2O[C@H]2[C@@H](C)[C@H](C)O)[C@@H](O)[C@H]1O [Mupirocin]
pKa [1]: 5
Systemic absorption [2]: minimal
inhibition of protein and RNA synthesis [3]: strongly inhibit
solubility (in alcohol at 20° C.): 500 µg/mL (≈ 999 µM)
solubility (in water at 20° C.): 1000 µg/mL (≈ 2000 µM)
